We go through 16 molecules from ChEMBL document CHEMBL4411285, “Design, synthesis, in silico pharmacokinetics prediction and biological evaluation of 1,4-dihydroindeno[1,2-c]pyrazole chalcone as EGFR /Akt pathway inhibitors” (Eur J Med Chem, 2019).

The test system of one test is SK-BR-3. The test can be described thus: Cytotoxicity against human SKBR3 cells after 24 hrs by MTT assay. It is filed as functional, cell-based. Particulars: SK-BR-3, 24 h.
A further test concerns MCF7. The test can be described thus: Cytotoxicity against human MCF7 cells after 24 hrs by MTT assay. The test is classed as functional, cell-based. The note with it: MCF7, 24 h. Background: Tetrazolium assays rely on reduction of a dye to a coloured formazan, in cell work by metabolically active cells.
For another test, the system named is HCT-116. Nature of the test: Cytotoxicity against human HCT116 cells after 24 hrs by MTT assay. It is filed as functional, cell-based. Particulars: HCT-116, 24 h.
The next test has as its system HEK-293T. The test can be described thus: Cytotoxicity against human HEK293T cells after 24 hrs by MTT assay. It is filed as cell-based.
The subject of test [1] is A549. The test can be described thus: Cytotoxicity against human A549 cells after 24 hrs by MTT assay. The test is classed as functional, cell-based. Particulars: A549, 24 h.
A further test relates to MDA-MB-231. The test can be described thus: Cytotoxicity against human MDA-MB-231 cells after 24 hrs by MTT assay. The test is classed as functional, cell-based. Particulars: MDA-MB-231, 24 h.
For test [2], the system named is A549. Nature of the test: Induction of apoptosis in human A549 cells assessed as increase in TP53 expression at 10 uM after 24 hrs by Western blot analysis. It is filed as functional, cell-based. (A western blot detects proteins with antibodies after separation by electrophoresis.)
The test system of test [3] is A549. Nature of the test: Cell cycle arrest in human A549 cells assessed as accumulation of cells at G0/G1 phase at 10 uM after 24 hrs by propidium iodide staining-based flow cytometric analysis (reference value: 71.1%). It is filed as functional. A general note: A flow cytometer gives signals particle by particle.
For test [4], the system named is A549. The test can be described thus: Inhibition of 3-D spheroids cell growth in human A549 cells at 10 uM after 25 days by crystal violet staining-based immunocytochemistry. The test is classed as functional.
The test system of test [5] is A549. The test can be described thus: Cell cycle arrest in human A549 cells assessed as accumulation of cells at G2/M phase at 10 uM after 24 hrs by propidium iodide staining-based flow cytometric analysis (reference value: 21.7%). It is filed as functional.
Test [6] relates to A549. The test can be described thus: Downregulation of EGFR expression in human A549 cells at 10 uM after 24 hrs by Hoechst staining-based fluorescence assay. It is filed as functional, cell-based.
The test system of test [7] is A549. The test can be described thus: Induction of apoptosis in human A549 cells assessed as increase in BAX expression at 10 uM after 24 hrs by Western blot analysis. It is filed as functional, cell-based.
In test [8] the test system is A549. The test can be described thus: Downregulation of AKT expression in human A549 cells at 10 uM after 24 hrs by Hoechst staining-based immunocytochemistry. It is filed as functional, cell-based.
In a further test the target is Tubulin (Homo sapiens) (UniProt P68371+Q9H4B7+P0DPH7+P68366+Q13509+Q71U36+P04350+Q3ZCM7+P07437+P68363+Q9BQE3+Q6PEY2+Q13885+Q9BVA1+Q9BUF5). Nature of the test: Inhibition of tubulin network in human A549 cells at 10 uM after 24 hrs by Hoechst 33342 staining-based confocal microscopic analysis. It is filed as cell-based.
Test [9] deals with A549. Nature of the test: Cell cycle arrest in human A549 cells assessed as accumulation of cells at sub G1 phase at 10 uM after 24 hrs by propidium iodide staining-based flow cytometric analysis (reference value: 0.52%). The test is classed as functional.
Test [10] deals with A549. The test can be described thus: Cell cycle arrest in human A549 cells assessed as accumulation of cells at S phase at 10 uM after 24 hrs by propidium iodide staining-based flow cytometric analysis (reference value: 6.22%). The test is classed as functional.
Test [11] concerns A549. Nature of the test: Induction of apoptosis in human A549 cells assessed as decrease in Bcl-2 expression at 10 uM after 24 hrs by Western blot analysis. It is filed as functional, cell-based.

Active and inactive are the calls of the source. The calls are words filed in the database; no cut-off is given here.

A word on the IC50: it is the concentration that gives 50% inhibition. As to `COc1ccc2c(c1)-c1n[nH]c(/C=C/C(=O)c3ccc(OC)c(OC)c3)c1C2`, the IC50 in the test with SK-BR-3 amounted to 9.22 µM; in the test on MCF7, 7.99 µM; in the test on HCT-116, 12.2 µM; in the test on HEK-293T it was 33 µM; in the test on A549 [1], 10.4 µM; with MDA-MB-231 it was 4.48 µM.
`COc1cc(C(=O)/C=C/c2[nH]nc3c2Cc2ccccc2-3)cc(OC)c1OC`: the IC50 worked out at 8.64 µM with SK-BR-3; 8.49 µM in the test with MCF7; 12.8 µM in the test on HCT-116; 25 µM in the test with HEK-293T; 10.9 µM with A549 [1]; 5.52 µM with MDA-MB-231.
As for `COc1cc2c(cc1OC)-c1n[nH]c(/C=C/C(=O)c3ccc(N)cc3)c1C2`, the IC50 was 9.23 µM with SK-BR-3; 7.5 µM in the test with MCF7; 8.34 µM in the test with HCT-116; 20 µM with HEK-293T; 9.73 µM with A549 [1]; 6.4 µM with MDA-MB-231.
In the case of `COc1cc2c(cc1OC)-c1n[nH]c(/C=C/C(=O)c3ccc4c(c3)OCO4)c1C2`, the IC50 in the test with SK-BR-3 was found to be 8.12 µM; in the test with MCF7, 6.9 µM; with HCT-116, 11.6 µM; in the test with HEK-293T, 18 µM; in the test with A549 [1], 11.9 µM; in the test on MDA-MB-231, 5.28 µM.
Consider `COc1cc2c(cc1OC)-c1n[nH]c(/C=C/C(=O)c3cc(OC)c(OC)c(OC)c3)c1C2`, for which the outcome in the test with A549 [2], with A549 [6], with A549 [7], with A549 [8] and with A549 [11] was Active. In addition, the Activity with A549 [3] is reported as 51.1%; in the test with A549 [5] it was 33.7%; in the test on A549 [9], 5.16%; in the test with A549 [10], 9.36%. The “growth inhibition (GI)” value in the test with A549 [4] was “Active”. For the same molecule, the IC50 in the test with SK-BR-3 was found to be 4.97 µM; in the test on MCF7, 6.83 µM; in the test on HCT-116, 5.9 µM; in the test on HEK-293T, 29 µM; in the test on A549 [1] it was 4.33 µM; with MDA-MB-231 it was 6.03 µM. In addition, on Tubulin (Homo sapiens), the inhibition result is “Active”.
Consider `COc1ccc(C(=O)/C=C/c2[nH]nc3c2Cc2cc(OC)c(OC)cc2-3)cc1`, for which the IC50 in the test with SK-BR-3 is 8.52 µM; with MCF7, 6.99 µM; in the test on HCT-116, 11.6 µM; with HEK-293T, 23 µM; in the test with A549 [1], 9.88 µM; in the test with MDA-MB-231, 6.54 µM.
In the case of `COc1ccc2c(c1)-c1n[nH]c(/C=C/C(=O)c3ccc4c(c3)OCO4)c1C2`, the IC50 with SK-BR-3 came out at 12.5 µM; in the test on MCF7, 9.99 µM; in the test with HCT-116, 13.7 µM; in the test on HEK-293T, 54 µM; in the test on A549 [1] it was 12.4 µM; with MDA-MB-231 it was 9.31 µM.
For the molecule `COc1ccc2c(c1)-c1n[nH]c(/C=C/C(=O)c3cc(OC)c(OC)c(OC)c3)c1C2`, the outcome in the test on A549 [2], in the test on A549 [6], with A549 [7], in the test on A549 [8] and with A549 [11] was Active. Moreover, the Activity amounted to 59.5% in the test with A549 [3], 29.6% with A549 [5], 2.36% in the test with A549 [9] and 7.99% in the test with A549 [10]. Further, in the test with A549 [4], the “growth inhibition (GI)” value was “Active”. Also, the IC50 amounted to 4.79 µM in the test with SK-BR-3; 6.55 µM in the test with MCF7; 6.85 µM in the test with HCT-116; 32 µM in the test on HEK-293T; 3.82 µM in the test on A549 [1]; 5.89 µM in the test on MDA-MB-231. Also, the inhibition result on Tubulin (Homo sapiens) was “Active”.
In the case of `COc1ccc(C(=O)/C=C/c2[nH]nc3c2Cc2cc(OC)c(OC)cc2-3)cc1OC`, the result in the test on A549 [2], in the test on A549 [6], with A549 [7], in the test with A549 [8] and with A549 [11] was Active. The Activity in the test with A549 [3] is 45.9%; in the test on A549 [5] it was 40.6%; with A549 [9] it was 5.27%; in the test with A549 [10], 7.62%. Also, the “growth inhibition (GI)” value in the test with A549 [4] was “Active”. The IC50 in the test with SK-BR-3 worked out at 5.11 µM; in the test with MCF7, 6.94 µM; with HCT-116, 6.66 µM; in the test with HEK-293T, 46 µM; in the test with A549 [1], 5.21 µM; in the test on MDA-MB-231 it was 3.82 µM. Also, at Tubulin (Homo sapiens), the inhibition result was “Active”.
As to `COc1ccc(C(=O)/C=C/c2[nH]nc3c2Cc2ccccc2-3)cc1`, the IC50 came to 14.7 µM in the test with SK-BR-3; 11.5 µM with MCF7; 10.8 µM in the test on HCT-116; 21 µM with HEK-293T; 14.3 µM in the test on A549 [1]; 10.1 µM in the test with MDA-MB-231.
As to `O=C(/C=C/c1[nH]nc2c1Cc1ccccc1-2)c1ccc2c(c1)OCO2`, the IC50 was 17.3 µM with SK-BR-3; 12.4 µM with MCF7; 13.8 µM with HCT-116; 17 µM with HEK-293T; 16 µM in the test on A549 [1]; 14.5 µM in the test with MDA-MB-231.
Turning to `Nc1ccc(C(=O)/C=C/c2[nH]nc3c2Cc2ccccc2-3)cc1`, the half-maximal inhibitory concentration (IC50) with SK-BR-3 was determined as 7.47 µM; in the test with MCF7 it was 8.35 µM; in the test with HCT-116, 14.9 µM; in the test with HEK-293T, 35 µM; in the test with A549 [1], 11.5 µM; with MDA-MB-231, 5.66 µM.
Consider `COc1ccc(C(=O)/C=C/c2[nH]nc3c2Cc2ccc(OC)cc2-3)cc1`, for which the IC50 in the test on SK-BR-3 was 10.2 µM; in the test with MCF7, 9.18 µM; in the test with HCT-116, 13.2 µM; in the test with HEK-293T it was 45 µM; in the test on A549 [1] it was 13.3 µM; in the test with MDA-MB-231, 6.21 µM.
Consider `COc1ccc(C(=O)/C=C/c2[nH]nc3c2Cc2ccccc2-3)cc1OC`, for which the IC50 came to 11.4 µM in the test on SK-BR-3; 10.1 µM with MCF7; 20.5 µM with HCT-116; 38 µM in the test with HEK-293T; 13.4 µM in the test with A549 [1]; 6.82 µM with MDA-MB-231.
`C#Cc1cccc(Nc2ncnc3cc(OCCOC)c(OCCOC)cc23)c1` [ERLOTINIB]: the outcome with A549 [2], with A549 [6], in the test with A549 [7], in the test on A549 [8] and in the test with A549 [11] was Active. In addition, the Activity with A549 [3] was determined as 64.1%; in the test with A549 [5], 26%; in the test on A549 [9], 1.71%; with A549 [10], 7.72%. Further, the IC50 came to 3.98 µM in the test with SK-BR-3; 12.4 µM in the test with MCF7; 7.31 µM in the test with HCT-116; 73 µM in the test on HEK-293T; 0.05 µM with MDA-MB-231.
`COc1ccc2c(c1)-c1n[nH]c(/C=C/C(=O)c3ccc(N)cc3)c1C2`: the IC50 with SK-BR-3 amounted to 12.5 µM; in the test with MCF7 it was 11.2 µM; in the test with HCT-116 it was 19.8 µM; in the test with HEK-293T it was 19 µM; in the test on A549 [1], 11.3 µM; in the test with MDA-MB-231, 11.9 µM.
